Experimental data published in patent US10407395B2, “Benzimidazole compound and medical use thereof” (Sumitomo Dainippon Pharma Co., Ltd., priority 2015, dated 2019).

These compounds were tested against human SCN9A (Nav 1.7) (Homo sapiens, UniProt Q15858) (assay: Measurement of Na ion current (Nav 1.7) by automated patch clamp assay in cells stably-expressing human SCN9A). Settings: compound concentration 10 μmol/L; holding potential inactivating 50% Nav 1.7 channel (around −60 mV); read-out: Inhibitory rate (%) of Na ion current.
Format: cell-based
Procedure, shortened: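 Tetracycline-inducible cells stably expressing human SCN9A were recorded by automated patch clamp at room temperature. Inhibition rate derived from peak Na current evoked by depolarizing pulse, compared with and without test compound.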

human SCN9A (Nav 1.7), sequence (Q15858 whole entry): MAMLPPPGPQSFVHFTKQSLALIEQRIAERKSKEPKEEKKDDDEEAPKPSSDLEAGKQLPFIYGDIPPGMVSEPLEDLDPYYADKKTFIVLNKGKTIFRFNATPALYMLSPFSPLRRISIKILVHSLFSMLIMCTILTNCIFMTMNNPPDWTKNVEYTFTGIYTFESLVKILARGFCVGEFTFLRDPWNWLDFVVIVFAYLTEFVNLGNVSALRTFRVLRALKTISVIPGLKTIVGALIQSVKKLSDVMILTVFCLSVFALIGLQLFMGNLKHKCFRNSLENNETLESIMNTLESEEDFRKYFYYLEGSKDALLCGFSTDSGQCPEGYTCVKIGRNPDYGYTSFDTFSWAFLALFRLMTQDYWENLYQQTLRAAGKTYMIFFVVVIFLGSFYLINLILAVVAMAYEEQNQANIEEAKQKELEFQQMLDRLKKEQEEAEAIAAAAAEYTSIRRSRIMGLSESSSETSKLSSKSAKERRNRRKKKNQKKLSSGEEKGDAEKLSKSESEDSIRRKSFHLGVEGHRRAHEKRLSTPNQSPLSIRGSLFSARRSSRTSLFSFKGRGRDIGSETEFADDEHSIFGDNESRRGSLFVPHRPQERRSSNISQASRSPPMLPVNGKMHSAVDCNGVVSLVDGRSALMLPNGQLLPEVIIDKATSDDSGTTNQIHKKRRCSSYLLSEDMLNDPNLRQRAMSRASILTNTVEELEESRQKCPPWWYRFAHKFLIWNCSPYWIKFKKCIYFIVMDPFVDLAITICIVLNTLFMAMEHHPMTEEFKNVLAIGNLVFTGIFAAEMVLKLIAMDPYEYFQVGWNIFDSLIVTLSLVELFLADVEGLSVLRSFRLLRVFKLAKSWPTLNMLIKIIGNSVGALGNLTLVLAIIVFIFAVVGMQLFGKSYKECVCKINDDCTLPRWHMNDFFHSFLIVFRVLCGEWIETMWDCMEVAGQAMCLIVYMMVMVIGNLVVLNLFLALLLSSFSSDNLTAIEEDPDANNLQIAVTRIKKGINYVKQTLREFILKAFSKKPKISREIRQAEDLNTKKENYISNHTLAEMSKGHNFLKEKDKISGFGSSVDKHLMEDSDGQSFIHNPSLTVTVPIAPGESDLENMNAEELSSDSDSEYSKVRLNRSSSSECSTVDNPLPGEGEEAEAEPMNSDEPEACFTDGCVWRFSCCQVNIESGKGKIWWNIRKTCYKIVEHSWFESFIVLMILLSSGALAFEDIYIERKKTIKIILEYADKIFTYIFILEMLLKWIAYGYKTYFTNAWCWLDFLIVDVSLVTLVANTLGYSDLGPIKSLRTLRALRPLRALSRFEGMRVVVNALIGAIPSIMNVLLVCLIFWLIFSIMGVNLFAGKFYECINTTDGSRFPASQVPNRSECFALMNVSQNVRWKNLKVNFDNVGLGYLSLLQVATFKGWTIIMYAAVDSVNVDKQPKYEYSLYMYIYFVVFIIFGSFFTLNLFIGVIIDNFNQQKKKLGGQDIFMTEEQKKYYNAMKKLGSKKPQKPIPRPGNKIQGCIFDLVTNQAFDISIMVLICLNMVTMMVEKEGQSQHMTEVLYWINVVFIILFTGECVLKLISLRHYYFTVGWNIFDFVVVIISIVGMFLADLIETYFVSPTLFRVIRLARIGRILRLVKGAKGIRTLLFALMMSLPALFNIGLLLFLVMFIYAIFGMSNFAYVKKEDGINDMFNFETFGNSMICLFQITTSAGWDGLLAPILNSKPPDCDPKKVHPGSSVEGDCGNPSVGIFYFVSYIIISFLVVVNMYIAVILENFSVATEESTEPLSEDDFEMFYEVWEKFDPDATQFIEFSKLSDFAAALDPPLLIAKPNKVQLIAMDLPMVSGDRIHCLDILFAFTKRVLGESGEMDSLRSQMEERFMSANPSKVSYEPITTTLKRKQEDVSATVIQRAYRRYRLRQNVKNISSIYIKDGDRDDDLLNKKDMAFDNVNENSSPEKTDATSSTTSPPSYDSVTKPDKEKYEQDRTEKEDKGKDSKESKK

First: CC(C)(O)Cn1cnc2ccc(Oc3ccc(F)cc3)cc21 [Example 1, 1-[6-(4-fluorophenoxy)-1H-benzimidazol-1-yl]-2-methylpropan-2-ol]
Second: CC(C)(O)CCn1cnc2ccc(Oc3ccc(Cl)cc3)cc21 [Example 101, 4-[6-(4-chlorophenoxy)-1H-benzimidazol-1-yl]-2-methylbutan-2-ol]
The inhibition at 10 µM of the first is higher: 83% for the first, 43% for the second.

Compared with CC(C)(O)Cn1cnc2ccc(Oc3ccc(C(F)(F)F)cn3)cc21 [Example 28, 2-methyl-1-(6-{[5-(trifluoromethyl)pyridin-2-yl]oxy}-1H-benzimidazol-1-yl)propan-2-ol], CC(C)(O)CCn1cnc2ccc(Oc3ccc(C(F)(F)F)cn3)cc21 [Example 59, 2-methyl-4-(6-{[5-(trifluoromethyl)pyridin-2-yl]oxy}-1H-benzimidazol-1-yl)butan-2-ol] is lower in inhibition at 10 µM: 82% for the first, 49% for the second.

First: OC1(Cn2cnc3ccc(Oc4ccc(OC(F)(F)F)cc4)cc32)COC1 [Example 94, 3-({6-[4-(trifluoromethoxy)phenoxy]-1H-benzimidazol-1-yl}methyl)oxetan-3-ol]
Second: OC1(Cn2cnc3cc(Oc4ccc(C(F)(F)F)cc4)ccc32)COC1 [Example 226]
The inhibition at 10 µM of the first is higher: 73% for the first, 45% for the second.

First: O[C@H]1CC[C@@H](n2cnc3ccc(Oc4ccc(C(F)(F)F)cn4)cc32)CC1 [Example 118, cis-4-(6-{[5-(trifluoromethyl)pyridin-2-yl]oxy}-1H-benzimidazol-1-yl)cyclohexanol]
Second: C[C@](O)(CO)Cn1cnc2ccc(Oc3ccc(C(F)(F)F)cn3)cc21 [Example 227, (2R)-2-methyl-3-(6-{[5-(trifluoromethyl)pyridin-2-yl]oxy}-1H-benzimidazol-1-yl)propane-1,2-diol]
The inhibition at 10 µM of the first is higher: 33% for the first, 11% for the second.

First: COc1cc(C(F)(F)F)ccc1-c1ccc2c(c1)ncn2CC(C)(C)O [Example 176, 1-{5-[2-methoxy-4-(trifluoromethyl)phenyl]-1H-benzimidazol-1-yl}-2-methylpropan-2-ol]
Second: COc1cc(C(F)(F)F)ccc1-c1ccc2c(c1)ncn2CCC(C)(C)O [Example 222]
The inhibition at 10 µM of the first is higher: 73% for the first, 45% for the second.

Going from CC(C)(O)Cn1cnc2cc(-c3ccc(N4CCOCC4)cc3)ccc21 [Example 177] to CC(C)(O)Cn1cnc2cc(-c3ccc(Cl)cc3)ccc21 [Example 178], the inhibition at 10 µM falls from 54% to 34%.

First: CC(C)(O)Cn1cnc2cc(-c3ccc(C(F)(F)F)nc3)ccc21 [Example 180]
Second: CC(C)(O)Cn1cnc2cc(-c3ccc(C(F)(F)F)cc3)ccc21 [Example 184]
The inhibition at 10 µM of the first is lower: 33% for the first, 67% for the second.

CC(C)(O)Cn1cnc2cc(-c3ccc(Cl)cc3Cl)ccc21 [Example 185] and Cc1cc(Cl)ccc1-c1ccc2c(c1)ncn2CC(C)(C)O [Example 187] are the same in inhibition at 10 µM: 45% for the first, 45% for the second.

Compared with COc1cc(F)ccc1-c1ccc2c(c1)ncn2CC(C)(C)O [Example 186], CC(C)(O)Cn1cnc2cc(-c3ccc(Cl)cc3F)ccc21 [Example 188] is higher in inhibition at 10 µM: 22% for the first, 51% for the second.

Compared with CC(C)(O)Cn1cnc2cc(-c3cccc(Cl)c3F)ccc21 [Example 189], CC(C)(O)Cn1cnc2cc(-c3ccccc3Cl)ccc21 [Example 195] is lower in inhibition at 10 µM: 42% for the first, 31% for the second.

Compared with CC(C)(O)Cn1cnc2cc(-c3ccc(F)c(Cl)c3)ccc21 [Example 190], CC(C)(O)Cn1cnc2cc(-c3cccc(Cl)c3)ccc21 [Example 196] is higher in inhibition at 10 µM: 42% for the first, 49% for the second.

First: CC(C)(O)Cn1cnc2cc(-c3ccc(Cl)cc3C(F)(F)F)ccc21 [Example 191]
Second: CC(C)(O)Cn1cnc2cc(-c3ccc(C(F)(F)F)cc3Cl)ccc21 [Example 192]
The inhibition at 10 µM of the first is lower: 52% for the first, 78% for the second.

Compared with CC(C)(O)Cn1cnc2cc(-c3ccc(S(C)(=O)=O)cc3C(F)(F)F)ccc21 [Example 193], CC(C)(O)Cn1cnc2cc(-c3cccc(C(F)(F)F)c3)ccc21 [Example 194] is higher in inhibition at 10 µM: 23% for the first, 43% for the second.

First: CC(C)(O)Cn1cnc2cc(-c3ccccc3OC(F)(F)F)ccc21 [Example 197]
Second: CC(C)(O)Cn1cnc2cc(-c3cccc(OC(F)(F)F)c3)ccc21 [Example 198]
The inhibition at 10 µM of the first is lower: 33% for the first, 58% for the second.

Compared with COc1cc(-c2ccc3c(c2)ncn3CC(C)(C)O)cc(C(F)(F)F)c1 [Example 199], COc1cc(-c2ccc3c(c2)ncn3CC2(O)COC2)cc(C(F)(F)F)c1 [Example 212] is lower in inhibition at 10 µM: 84% for the first, 55% for the second.

Compared with CC(C)(O)Cn1cnc2cc(-c3cc(F)cc(Cl)c3)ccc21 [Example 200], OC1(Cn2cnc3cc(-c4cc(F)cc(Cl)c4)ccc32)COC1 [Example 214] is lower in inhibition at 10 µM: 52% for the first, 42% for the second.

Compared with CC(C)(O)Cn1cnc2cc(-c3ccc4ocnc4c3)ccc21 [Example 201], CC(C)(O)Cn1cnc2cc(-c3cnoc3)ccc21 [Example 202] is lower in inhibition at 10 µM: 32% for the first, 21% for the second.

First: OC1(Cn2cnc3cc(-c4ccc(C(F)(F)F)cc4F)ccc32)COC1 [Example 203]
Second: OC1(Cn2cnc3cc(-c4cc(C(F)(F)F)ccc4F)ccc32)COC1 [Example 210]
The inhibition at 10 µM of the first is lower: 26% for the first, 48% for the second.

Compared with OC1(Cn2cnc3cc(-c4ccc(OC(F)(F)F)cc4)ccc32)COC1 [Example 204], OC1(Cn2cnc3cc(-c4ccc(C(F)(F)F)cc4Cl)ccc32)COC1 [Example 206] is higher in inhibition at 10 µM: 28% for the first, 69% for the second.

First: OC1(Cn2cnc3cc(-c4ccc(Cl)cc4C(F)(F)F)ccc32)COC1 [Example 207]
Second: OC1(Cn2cnc3cc(-c4cccc(C(F)(F)F)c4Cl)ccc32)COC1 [Example 217]
The inhibition at 10 µM of the first is higher: 65% for the first, 60% for the second.

Going from Cc1c(Cl)cccc1-c1ccc2c(c1)ncn2CC1(O)COC1 [Example 208] to COc1cccc(-c2ccc3c(c2)ncn3CC2(O)COC2)c1Cl [Example 216], the inhibition at 10 µM rises from 43% to 53%.

Compared with Cc1ccc(Cl)cc1-c1ccc2c(c1)ncn2CC1(O)COC1 [Example 209], Cc1cc(Cl)cc(-c2ccc3c(c2)ncn3CC2(O)COC2)c1 [Example 218] is higher in inhibition at 10 µM: 48% for the first, 53% for the second.

First: OC1(Cn2cnc3cc(-c4cc(C(F)(F)F)ccc4Cl)ccc32)COC1 [Example 211]
Second: Cc1c(-c2ccc3c(c2)ncn3CC2(O)COC2)cccc1C(F)(F)F [Example 215]
The inhibition at 10 µM of the first is lower: 44% for the first, 84% for the second.

Compared with Cc1cc(-c2ccc3c(c2)ncn3CC2(O)COC2)cc(C(F)(F)F)c1 [Example 213], CC(C)(O)CCn1cnc2cc(-c3ccc(C(F)(F)F)cc3)ccc21 [Example 221] is higher in inhibition at 10 µM: 41% for the first, 45% for the second.

First: CC(C)(O)CCn1cnc2cc(-c3ccc(F)cc3)ccc21 [Example 219]
Second: CC(C)(O)CCn1cnc2cc(-c3ccc(Cl)cc3)ccc21 [Example 220]
The inhibition at 10 µM of the first is lower: 40% for the first, 52% for the second.

Going from CC(C)(O)CCn1cnc2cc(-c3ccc(C(F)(F)F)cc3F)ccc21 [Example 223] to CC(C)(O)Cn1cnc2cc(Oc3ccc(C(F)(F)F)cc3F)ccc21 [Example 224, 1-{5-[2-fluoro-4-(trifluoromethyl)phenoxy]-1H-benzimidazol-1-yl}-2-methylpropan-2-ol], the inhibition at 10 µM rises from 47% to 53%.

CC(C)(O)Cn1cnc2cc(Oc3ccc(C(F)(F)F)cc3)ccc21 [Example 225] gave an inhibition at 10 µM of 64%.

Same assay, conditions: compound concentration 100 μmol/L (footnoted examples); holding potential inactivating 50% Nav 1.7 channel (around −60 mV); read-out: Inhibitory rate (%) of Na ion current

Compared with COc1ccc(-c2ccc3c(c2)ncn3CC(C)(C)O)cn1 [Example 182], Cc1ccc(-c2ccc3c(c2)ncn3CC(C)(C)O)cn1 [Example 183] is higher in inhibition at 100 µM: 11% for the first, 30% for the second.

In the case of C[C@@H](n1cnc2ccc(Oc3ccc(C(F)(F)F)cn3)cc21)C(C)(C)O [Example 228, (3R)-2-methyl-3-(6-{[5-(trifluoromethyl)pyridin-2-yl]oxy}-1H-benzimidazol-1-yl)butan-2-ol], the inhibition at 100 µM is reported as 66%.

Same assay, conditions: read-out: Inhibitory rate (%) of Na ion current

Compound CC(C)(O)Cn1cnc2ccc(Oc3ccc(Cl)cc3)cc21 [Example 20, 1-[6-(4-chlorophenoxy)-1H-benzimidazol-1-yl]-2-methylpropan-2-ol] has an inhibition at 10 µM of 91%.

What follows are compounds tested on rats streptozotocin (STZ)-induced diabetic peripheral neuropathy model (assay: Evaluation of analgesic effect (von Frey test) in streptozotocin-induced diabetic peripheral neuropathy model). Settings: male Wistar rats, 3 mg/kg of body weight, orally, one hour before measuring.
Format: in vivo, rat
Experimental: Test (2) Evaluation of Analgesic Effect in Streptozotocin-Induced Diabetic Peripheral Neuropathy Models
Using some typical compounds among the compounds of the present invention, the inhibitory effect for neuropathic pain was determined through the evaluation of analgesic effect in rats streptozotocin (STZ)-induced diabetic peripheral neuropathy model.
The disease animal model was prepared by means of a partially-modified method of Fox et al. (Pain 81, 307-316, 1999). STZ was intraperitoneally administered to 9-week old male Wistar rats in 45 mg/kg of body weight to prepare animal model suffering from diabetic peripheral neuropathy. The analgesic effect was evaluated by von Frey test. Specifically, mechanical sensitivity was measured by applying hairs (von Frey hair) to the plantar surface of the animal's hind paw, and then the reaction thresholds (50% paw withdrawal thresholds) for the mechanical stimulation was determined by using a formula based on Chaplan et al. (Journal of Neuroscience Methods 53, 55-63, 1994).
One and two days before evaluating the test compounds, the reaction thresholds were measured to obtain an average thereof, and the average value was used as a reference value obtained before the test compounds would be administered.
In order to reduce the variations of the averaged values among the test groups and the measured values in each group, the animals were divided into 4 to 5 groups.
In the evaluation test of the test compounds, the reaction thresholds were measured after administering each test compound. One hour before measuring the reaction thresholds, each test compound was administered in 3 mg/kg of body weight. The strength of analgesic effect of each test compound is expressed as the extension width (g) of reaction thresholds which is obtained by the calculation formula of (reaction threshold obtained after administering test compound)−(reaction threshold obtained before administering test compound).

Going from CC(C)(O)Cn1cnc2ccc(Oc3ccc(F)cc3)cc21 [Example 1, 1-[6-(4-fluorophenoxy)-1H-benzimidazol-1-yl]-2-methylpropan-2-ol] to CC(C)(O)Cn1cnc2ccc(Oc3ccc(Cl)cc3)cc21 [Example 20, 1-[6-(4-chlorophenoxy)-1H-benzimidazol-1-yl]-2-methylpropan-2-ol], the “extension width (g) of reaction thresholds (50% paw withdrawal threshold after minus before administering test compound)” value rises from 2.8 g to 2.9 g.

First: CC(C)(O)Cn1cnc2ccc(Oc3ccc(C(F)(F)F)cn3)cc21 [Example 28, 2-methyl-1-(6-{[5-(trifluoromethyl)pyridin-2-yl]oxy}-1H-benzimidazol-1-yl)propan-2-ol]
Second: CC(C)(O)CCn1cnc2ccc(Oc3ccc(C(F)(F)F)cn3)cc21 [Example 59, 2-methyl-4-(6-{[5-(trifluoromethyl)pyridin-2-yl]oxy}-1H-benzimidazol-1-yl)butan-2-ol]
The “extension width (g) of reaction thresholds (50% paw withdrawal threshold after minus before administering test compound)” value of the first is higher: 6 g for the first, 5.1 g for the second.

Compared with OC1(Cn2cnc3ccc(Oc4ccc(OC(F)(F)F)cc4)cc32)COC1 [Example 94, 3-({6-[4-(trifluoromethoxy)phenoxy]-1H-benzimidazol-1-yl}methyl)oxetan-3-ol], CC(C)(O)CCn1cnc2ccc(Oc3ccc(Cl)cc3)cc21 [Example 101, 4-[6-(4-chlorophenoxy)-1H-benzimidazol-1-yl]-2-methylbutan-2-ol] is lower in “extension width (g) of reaction thresholds (50% paw withdrawal threshold after minus before administering test compound)” value: 4.9 g for the first, 1.4 g for the second.

O[C@H]1CC[C@@H](n2cnc3ccc(Oc4ccc(C(F)(F)F)cn4)cc32)CC1 [Example 118, cis-4-(6-{[5-(trifluoromethyl)pyridin-2-yl]oxy}-1H-benzimidazol-1-yl)cyclohexanol] was tested, and the “extension width (g) of reaction thresholds (50% paw withdrawal threshold after minus before administering test compound)” value was 3.4 g.
